The text below walks through data of patent publication US10245264B2, “Substituted imidazo[1,2-a]pyrazines as soluble guanylate cyclase activators” (Merck Sharp & Dohme Corp., priority 2015, dated 2019).

The experiment concerns the target T1, sGC α1/β1 heterodimer stably expressed in CHO-K1 cells (CHO-K1/sGC) (Homo sapiens, UniProt Q02108+Q02153).
T1 construct: expressed in transfected cells
T1 sequence (Q02108 1-690): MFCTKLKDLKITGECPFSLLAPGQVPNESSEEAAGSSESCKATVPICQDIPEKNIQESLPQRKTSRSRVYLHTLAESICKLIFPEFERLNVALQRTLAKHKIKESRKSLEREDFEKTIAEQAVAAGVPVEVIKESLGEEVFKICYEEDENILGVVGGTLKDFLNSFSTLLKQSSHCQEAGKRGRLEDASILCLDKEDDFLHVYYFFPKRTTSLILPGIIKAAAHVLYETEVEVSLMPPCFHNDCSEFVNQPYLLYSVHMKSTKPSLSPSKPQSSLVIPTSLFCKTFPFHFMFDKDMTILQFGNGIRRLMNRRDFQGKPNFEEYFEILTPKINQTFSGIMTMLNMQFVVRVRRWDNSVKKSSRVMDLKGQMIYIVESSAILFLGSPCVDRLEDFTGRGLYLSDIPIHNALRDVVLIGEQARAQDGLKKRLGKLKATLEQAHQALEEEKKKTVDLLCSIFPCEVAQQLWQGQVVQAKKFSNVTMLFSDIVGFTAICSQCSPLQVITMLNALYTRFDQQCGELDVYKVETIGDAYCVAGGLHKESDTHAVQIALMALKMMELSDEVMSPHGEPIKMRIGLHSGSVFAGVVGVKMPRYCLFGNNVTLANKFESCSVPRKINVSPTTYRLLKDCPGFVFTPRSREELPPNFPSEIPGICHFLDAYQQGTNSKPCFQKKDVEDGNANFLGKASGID
T1 sequence (Q02153 1-619): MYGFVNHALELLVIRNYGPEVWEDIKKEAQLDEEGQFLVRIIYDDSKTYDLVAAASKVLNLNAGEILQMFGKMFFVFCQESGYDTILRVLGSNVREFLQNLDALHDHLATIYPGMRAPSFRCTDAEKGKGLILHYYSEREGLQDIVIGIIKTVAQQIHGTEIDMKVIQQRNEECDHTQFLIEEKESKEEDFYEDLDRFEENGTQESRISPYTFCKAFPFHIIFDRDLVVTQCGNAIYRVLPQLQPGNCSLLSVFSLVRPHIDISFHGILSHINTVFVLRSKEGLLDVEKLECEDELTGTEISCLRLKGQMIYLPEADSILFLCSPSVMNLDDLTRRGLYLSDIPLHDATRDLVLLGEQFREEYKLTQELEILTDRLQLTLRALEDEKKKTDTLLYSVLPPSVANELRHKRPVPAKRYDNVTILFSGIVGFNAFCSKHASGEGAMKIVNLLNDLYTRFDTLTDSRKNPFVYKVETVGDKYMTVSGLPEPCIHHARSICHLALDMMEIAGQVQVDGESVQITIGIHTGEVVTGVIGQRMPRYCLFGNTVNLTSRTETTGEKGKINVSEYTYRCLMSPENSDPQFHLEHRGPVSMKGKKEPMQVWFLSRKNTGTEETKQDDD
In words: Cell-based sGC functional assay (CASA assay), cGMP generation by HTRF. Conditions: for Emax: CHO-K1, maximum cGMP production of Compound A set to 100% activation, read-out: % Act. (percent activation relative to Compound A); for EC50: CHO-K1/sGC cells, 1 hr at 37° C., 4P fit, presence or absence of DETA-NO not given, read-out: IP (nM) (inflection point). Put shortly: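 CHO-K1/sGC cells (4×10^5/mL) in EBSS with 5 mM MgCl2, 10 mM HEPES, 0.05% BSA and 0.5 mM IBMX, treated 1 hr at 37° C with compounds (2.5% DMSO) with or without 1 μM DETA-NO. cGMP measured by HTRF, expressed as % of a reference heme-dependent activator's maximum; inflection point and fold induction from 4P fit.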
A general note: TR-FRET usually uses a lanthanide donor and a delayed reading to cut background.

Regarding `CC1(c2ccc(F)cc2)C(=O)Nc2nc(-c3cn4ccnc4c(SCCC(F)(F)F)n3)nc(N)c21` (stereo not drawn) [Example 64A, 4-amino-5-(4-fluorophenyl)-5-methyl-2-{8-[(3,3,3-trifluoro-propyl)sulfanyl]imidazo[1,2-a]pyrazin-6-yl}-5,7-dihydro-6H-pyrrolo[2,3-d] pyrimidin-6-one], the Emax amounted to 67% and the EC50 was found to be 73 nM.

Consider `CCC1(CNc2nc(-c3nc(N)c4c(n3)NC(=O)C4(C)c3ccc(Cl)cc3)cn3ccnc23)CC1` (stereo not drawn) [Example 57A, 4-amino-5-(4-chlorophenyl)-2-(8-{[(1-ethylcyclo-propyl)methyl]amino}imidazo [1,2-a]pyrazin-6-yl)-5-methyl-5,7-dihydro-6H-pyrrolo[2,3-d] pyrimidin-6-one], for which the Emax was found to be 123% and the EC50 was 47 nM.

For the compound `CC1(c2ccc(F)cc2)C(=O)Nc2nc(-c3cn4ccnc4c(OC4CCCC4)n3)nc(N)c21` (stereo not drawn) [Example 46A, 4-amino-2-[8-(cyclopentyl-oxy)imidazo [1,2-a]pyrazin-6-yl]-5-(4-fluorophenyl)-5-methyl-5,7-dihydro-6H-pyrrolo[2,3-d] pyrimidin-6-one], the Emax was determined as 108% and the EC50 turned out to be 912 nM.

On to `CC1(c2ccccc2)C(=O)Nc2nc(-c3cn4ccnc4c(Oc4ccc(F)c(F)c4F)n3)nc(N)c21` (stereo not drawn) [Example 11B, 4-amino-5-methyl-5-phenyl-2-[8-(2,3,4-trifluoro-phenoxy)imidazo [1,2-a]pyrazin-6-yl]-5,7-dihydro-6H-pyrrolo[2,3-d] pyrimidin-6-one], for which the Emax was 104% and the EC50 is 138 nM.

`CC1(c2ccc(F)cc2)C(=O)Nc2nc(-c3cn4ccnc4c(OC4CCCCC4)n3)nc(N)c21` (stereo not drawn) [Example 22A, 4-amino-2-[8-(cyclohexyloxy)imidazo[1,2-a]pyrazin-6-yl]-5-(4-fluorophenyl)-5-methyl-5,7-dihydro-6H-pyrrolo[2,3-d] pyrimidin-6-one]: the Emax is 107% and the EC50 came to 171 nM.

Regarding `CC1(c2ccc(Cl)cc2)C(=O)Nc2nc(-c3cn4ccnc4c(OCC4CCCCO4)n3)nc(N)c21` (single isomer, unassigned; fast eluting) [Example 68A, 4-amino-5-(4-chlorophenyl)-5-methyl-2-[8-(tetrahydro-2H-pyran-2-ylmethoxy)imidazo[1,2-a]pyrazin-6-yl]-5,7-dihydro-6H-pyrrolo [2,3-d] pyrimidin-6-one (fast eluting)], the Emax turned out to be 86% and the EC50 came out at 324 nM.

For the compound `CC1(c2ccc(F)cc2)C(=O)Nc2nc(-c3cn4cc(C5CC5)nc4c(Oc4cccc(F)c4)n3)nc(N)c21` (stereo not drawn) [Example 38A, 4-amino-2-[2-cyclopropyl-8-(3-fluorophenoxy)imidazo[1,2-a]pyrazin-6-yl]-5-(4-fluorophenyl)-5-methyl-5,7-dihydro-6H-pyrrolo[2,3-d] pyrimidin-6-one], the Emax came out at 92% and the EC50 worked out at 748 nM.

As for `CC1(c2ccc(F)cc2)C(=O)Nc2nc(-c3cn4ccnc4c(Oc4c(F)ccc(F)c4F)n3)nc(N)c21` (stereo not drawn) [Example 6A, 4-amino-5-(4-fluorophenyl)-5-methyl-2-[8-(2,3,6-trifluorophenoxy)imidazo[1,2-a]pyrazin-6-yl]-5,7-dihydro-6H-pyrrolo[2,3-d] pyrimidin-6-one], the Emax was determined as 89% and the EC50 worked out at 499 nM.

For `C[C@H](Oc1nc(-c2nc(N)c3c(n2)NC(=O)C3(C)c2ccc(Cl)cc2)cn2ccnc12)c1ccccc1` (single isomer, unassigned; fast eluting) [Example 69A], the Emax came out at 103% and the EC50 is 833 nM.

In the case of `CC(C)CSc1nc(-c2nc(N)c3c(n2)NC(=O)C3(C)c2ccc(F)cc2)cn2ccnc12` (stereo not drawn) [Example 63A, 4-amino-5-(4-fluorophenyl)-5-methyl-2-{8-[(2-methylpropyl)sulfanyl]imidazo [1,2-a]pyrazin-6-yl}-5,7-dihydro-6H-pyrrolo[2,3-d] pyrimidin-6-one], the Emax amounted to 93% and the EC50 came to 10 nM.

Turning to `CC1(c2ccc(Cl)cc2)C(=O)Nc2nc(-c3cn4ccnc4c(NCC4CCCOC4)n3)nc(N)c21` (single isomer, unassigned; slow eluting) [Example 72B, 4-amino-5-(4-chlorophenyl)-5-methyl-2-{8-[(tetrahydro-2H-pyran-3-ylmethyl)amino]imidazo [1,2-a]pyrazin-6-yl}-5,7-dihydro-6H-pyrrolo[2,3-d] pyrimidin-6-one (slow eluting)], the EC50 is 412 nM. Moreover, for the setting “maximum cGMP production of Compound A set to 100% activation”, the “% Act. (percent activation relative to Compound A)” value was found to be 94%.

`CC1(c2ccc(Cl)cc2)C(=O)Nc2nc(-c3cn4ccnc4c(NCC4CCCCO4)n3)nc(N)c21` (single isomer, unassigned; fast eluting) [Example 71A, 4-amino-5-(4-chlorophenyl)-5-methyl-2-{8-[(tetrahydro-2H-pyran-2-ylmethyl)amino]imidazo [1,2-a]pyrazin-6-yl}-5,7-dihydro-6H-pyrrolo[2,3-d] pyrimidin-6-one (fast eluting)]: the Emax worked out at 96% and the EC50 is 175 nM.

Take `CC1(c2ccc(Cl)cc2)C(=O)Nc2nc(-c3cn4ccnc4c(OC4CCC(F)(F)CC4)n3)nc(N)c21` (stereo not drawn) [Example 28A, 4-amino-5-(4-chlorophenyl)-2-{8-[(4,4-difluorocyclohexyl)oxy]imidazo[1,2-a]pyrazin-6-yl}-5-methyl-5,7-dihydro-6H-pyrrolo[2,3-d] pyrimidin-6-one]: the Emax was found to be 139% and the EC50 stood at 1160 nM.

With `CC1(C)C(=O)Nc2nc(-c3cn4ccnc4c(Oc4cc(F)ccc4F)n3)nc(N)c21` [Example 26, 4-amino-2-[8-(2,5-difluorophenoxy)imidazo[1,2-a]pyrazin-6-yl]-5,5-dimethyl-5,7-dihydro-6H-pyrrolo[2,3-d] pyrimidin-6-one], the Emax is 105% and the EC50 was 718 nM.

Take `CC1(c2ccc(Cl)cc2)C(=O)Nc2nc(-c3cn4ccnc4c(NCC4CC(F)(F)C4)n3)nc(N)c21` (stereo not drawn) [Example 58A, 4-amino-5-(4-chlorophenyl)-2-(8-{[(3,3-difluorocyclo-butyl)methyl]amino}imidazo [1,2-a]pyrazin-6-yl)-5-methyl-5,7-dihydro-6H-pyrrolo[2,3-d] pyrimidin-6-one]: the Emax is 109% and the EC50 was determined as 163 nM.

For `CC1(c2ccc(F)cc2)C(=O)Nc2nc(-c3cn4ccnc4c(Oc4cccnc4)n3)nc(N)c21` (stereo not drawn) [Example 29A, 4-amino-5-(4-fluorophenyl)-5-methyl-2-[8-(pyridin-3-yloxy)imidazo[1,2-a]pyrazin-6-yl]-5,7-dihydro-6H-pyrrolo[2,3-d] pyrimidin-6-one], the Emax was 158% and the EC50 was 422 nM.

Consider `CC1(c2ccc(F)cc2)C(=O)Nc2nc(-c3cn4ccnc4c(Oc4ccc(F)cc4F)n3)nc(N)c21` (stereo not drawn) [Example 19A, 4-amino-2-[8-(2,4-difluorophenoxy)imidazo[1,2-a]pyrazin-6-yl]-5-(4-fluorophenyl)-5-methyl-5,7-dihydro-6H-pyrrolo[2,3-d] pyrimidin-6-one], for which the Emax is 109% and the EC50 amounted to 74 nM.

Turning to `CC1(c2ccccc2)C(=O)Nc2nc(-c3cn4ccnc4c(Oc4c(F)ccc(F)c4F)n3)nc(N)c21` (stereo not drawn) [Example 7B, 4-amino-5-methyl-5-phenyl-2-[8-(2,3,6-trifluorophenoxy)imidazo[1,2-a]pyrazin-6-yl]-5,7-dihydro-6H-pyrrolo[2,3-d] pyrimidin-6-one], the Emax was 112% and the EC50 amounted to 1020 nM.
